ChEMBL document CHEMBL4184123, “Discovery of novel 2-substituted-4-phenoxypyridine derivatives as potential antitumor agents” (Bioorg Med Chem Lett, 2018)

Biological target: ALK tyrosine kinase receptor (Homo sapiens, UniProt Q9UM73)
Assay: Inhibition of ALK (unknown origin) using poly (Glu, Tyr) 4:1 as substrate after 30 mins in presence of ATP by HTRF assay
Conditions: not given

ALK tyrosine kinase receptor, sequence (Q9UM73 whole entry): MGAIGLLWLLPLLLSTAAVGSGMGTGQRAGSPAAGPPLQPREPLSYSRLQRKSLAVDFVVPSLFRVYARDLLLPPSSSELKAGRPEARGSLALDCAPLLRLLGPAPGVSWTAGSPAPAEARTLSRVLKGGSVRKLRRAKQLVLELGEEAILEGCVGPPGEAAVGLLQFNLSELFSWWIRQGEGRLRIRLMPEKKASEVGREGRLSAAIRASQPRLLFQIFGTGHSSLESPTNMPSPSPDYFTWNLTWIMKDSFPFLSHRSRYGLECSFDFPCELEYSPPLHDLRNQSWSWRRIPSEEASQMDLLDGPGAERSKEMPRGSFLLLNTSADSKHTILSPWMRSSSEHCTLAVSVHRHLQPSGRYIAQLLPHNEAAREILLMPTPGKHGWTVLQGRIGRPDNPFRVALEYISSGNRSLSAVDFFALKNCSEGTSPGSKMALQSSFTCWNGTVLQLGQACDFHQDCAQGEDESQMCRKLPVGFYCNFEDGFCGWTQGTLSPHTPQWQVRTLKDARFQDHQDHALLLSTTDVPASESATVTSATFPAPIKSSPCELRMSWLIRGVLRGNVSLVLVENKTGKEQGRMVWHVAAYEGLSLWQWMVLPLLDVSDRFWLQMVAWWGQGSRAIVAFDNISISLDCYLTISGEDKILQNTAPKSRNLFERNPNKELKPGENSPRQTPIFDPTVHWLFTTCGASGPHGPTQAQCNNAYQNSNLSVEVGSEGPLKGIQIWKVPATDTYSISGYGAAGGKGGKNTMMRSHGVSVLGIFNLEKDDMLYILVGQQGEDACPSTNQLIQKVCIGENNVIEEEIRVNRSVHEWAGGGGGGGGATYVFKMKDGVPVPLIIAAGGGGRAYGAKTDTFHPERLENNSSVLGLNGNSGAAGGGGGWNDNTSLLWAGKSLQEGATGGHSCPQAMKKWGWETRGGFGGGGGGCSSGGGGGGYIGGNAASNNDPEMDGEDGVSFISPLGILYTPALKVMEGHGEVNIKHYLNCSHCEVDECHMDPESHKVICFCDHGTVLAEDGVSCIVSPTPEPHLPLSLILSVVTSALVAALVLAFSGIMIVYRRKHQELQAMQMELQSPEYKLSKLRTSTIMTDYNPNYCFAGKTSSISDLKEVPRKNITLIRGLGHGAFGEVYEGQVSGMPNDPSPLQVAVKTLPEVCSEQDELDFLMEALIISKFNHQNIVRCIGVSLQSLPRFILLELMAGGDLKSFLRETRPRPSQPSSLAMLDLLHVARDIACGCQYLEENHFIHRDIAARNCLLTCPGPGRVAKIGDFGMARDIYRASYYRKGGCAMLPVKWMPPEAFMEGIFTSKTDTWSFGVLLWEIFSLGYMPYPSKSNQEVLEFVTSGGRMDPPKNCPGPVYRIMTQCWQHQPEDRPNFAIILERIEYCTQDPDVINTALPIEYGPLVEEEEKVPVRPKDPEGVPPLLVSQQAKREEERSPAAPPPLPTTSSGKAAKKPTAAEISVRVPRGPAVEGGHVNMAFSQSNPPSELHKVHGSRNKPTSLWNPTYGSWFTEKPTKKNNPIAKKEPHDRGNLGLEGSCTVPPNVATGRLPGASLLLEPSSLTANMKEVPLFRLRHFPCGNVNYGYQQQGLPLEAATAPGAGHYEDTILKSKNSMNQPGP

| Compound | IC50 |
| --- | --- |
| CCCNC(=O)c1cc(Oc2ccc(NC(=O)c3cc4cccnc4n(-c4ccc(F)cc4)c3=O)cc2)ccn1 | 186 nM |

Biological target: Platelet-derived growth factor receptor alpha (Homo sapiens, UniProt P16234)
Assay: Inhibition of PDGFRalpha (unknown origin) using poly (Glu, Tyr) 4:1 as substrate after 30 mins in presence of ATP by HTRF assay
Conditions: not given

| Compound | IC50 |
| --- | --- |
| CCCNC(=O)c1cc(Oc2ccc(NC(=O)c3cc4cccnc4n(-c4ccc(F)cc4)c3=O)cc2)ccn1 | 691 nM |

Biological target: Epidermal growth factor receptor (Homo sapiens, UniProt P00533)
Assay: Inhibition of EGFR (unknown origin) using poly (Glu, Tyr) 4:1 as substrate after 30 mins in presence of ATP by HTRF assay
Conditions: not given

| Compound | IC50 |
| --- | --- |
| CCCNC(=O)c1cc(Oc2ccc(NC(=O)c3cc4cccnc4n(-c4ccc(F)cc4)c3=O)cc2)ccn1 | > 100000 nM |

System: A549
Assay: cells
Conditions: Homo sapiens, A549, 72 h
Description: Antiproliferative activity against human A549 cells after 72 hrs by MTT assay

| Compound | IC50 |
| --- | --- |
| CCNC(=O)c1cc(Oc2ccc(NC(=O)c3cc4cccnc4n(-c4ccccc4F)c3=O)cc2)ccn1 | 490 nM |
| CCCNC(=O)c1cc(Oc2ccc(NC(=O)c3cc4cccnc4n(-c4ccc(Br)cc4)c3=O)cc2)ccn1 | 150 nM |
| CCCNC(=O)c1cc(Oc2ccc(NC(=O)c3cc4cccnc4n(-c4ccc(Br)cc4F)c3=O)cc2)ccn1 | 1310 nM |
| CCNC(=O)c1cc(Oc2ccc(NC(=O)c3cc4cccnc4n(-c4ccccc4)c3=O)cc2)ccn1 | 160 nM |
| CNC(=O)c1cc(Oc2ccc(NC(=O)c3cc4cccnc4n(-c4ccc(Cl)cc4)c3=O)cc2)ccn1 | 370 nM |
| CNC(=O)c1cc(Oc2ccc(NC(=O)c3cc4cccnc4n(-c4ccc(F)cc4)c3=O)cc2)ccn1 | 110 nM |
| CCCNC(=O)c1cc(Oc2ccc(NC(=O)c3cc4cccnc4n(-c4ccc(C(F)(F)F)cc4Cl)c3=O)cc2)ccn1 | 1250 nM |
| CCCNC(=O)c1cc(Oc2ccc(NC(=O)c3cc4cccnc4n(-c4ccc(OC)cc4)c3=O)cc2)ccn1 | 820 nM |
| CCCNC(=O)c1cc(Oc2ccc(NC(=O)c3cc4cccnc4n(-c4ccc(F)c(Cl)c4)c3=O)cc2)ccn1 | 590 nM |
| CCNC(=O)c1cc(Oc2ccc(NC(=O)c3cc4cccnc4n(-c4ccc(Br)cc4F)c3=O)cc2)ccn1 | 1820 nM |
| CNC(=O)c1cc(Oc2ccc(NC(=O)c3cc4cccnc4n(-c4ccc(OC)cc4)c3=O)cc2)ccn1 | 3110 nM |
| CCNC(=O)c1cc(Oc2ccc(NC(=O)c3cc4cccnc4n(-c4ccc(OC)cc4)c3=O)cc2)ccn1 | 2010 nM |
| CCCNC(=O)c1cc(Oc2ccc(NC(=O)c3cc4cccnc4n(-c4ccc(F)cc4)c3=O)cc2)ccn1 | 62 nM |

System: NCI-H460
Assay: Antiproliferative activity against human H460 cells after 72 hrs by MTT assay
Type: functional, cell-based
Conditions: NCI-H460, 72 h

| Compound | IC50 |
| --- | --- |
| CCNC(=O)c1cc(Oc2ccc(NC(=O)c3cc4cccnc4n(-c4ccccc4F)c3=O)cc2)ccn1 | 1230 nM |
| CCCNC(=O)c1cc(Oc2ccc(NC(=O)c3cc4cccnc4n(-c4ccc(Br)cc4)c3=O)cc2)ccn1 | 620 nM |
| CCNC(=O)c1cc(Oc2ccc(NC(=O)c3cc4cccnc4n(-c4ccccc4)c3=O)cc2)ccn1 | 1120 nM |
| CNC(=O)c1cc(Oc2ccc(NC(=O)c3cc4cccnc4n(-c4ccc(F)cc4)c3=O)cc2)ccn1 | 210 nM |
| CCCNC(=O)c1cc(Oc2ccc(NC(=O)c3cc4cccnc4n(-c4ccc(C(F)(F)F)cc4Cl)c3=O)cc2)ccn1 | 3170 nM |
| CCCNC(=O)c1cc(Oc2ccc(NC(=O)c3cc4cccnc4n(-c4ccc(OC)cc4)c3=O)cc2)ccn1 | 1730 nM |
| CCCNC(=O)c1cc(Oc2ccc(NC(=O)c3cc4cccnc4n(-c4ccc(F)c(Cl)c4)c3=O)cc2)ccn1 | 1600 nM |
| CCNC(=O)c1cc(Oc2ccc(NC(=O)c3cc4cccnc4n(-c4ccc(Br)cc4F)c3=O)cc2)ccn1 | 1790 nM |
| CCNC(=O)c1cc(Oc2ccc(NC(=O)c3cc4cccnc4n(-c4ccc(OC)cc4)c3=O)cc2)ccn1 | 1720 nM |
| CCCNC(=O)c1cc(Oc2ccc(NC(=O)c3cc4cccnc4n(-c4ccc(F)cc4)c3=O)cc2)ccn1 | 120 nM |

Biological target: T1, Receptor-type tyrosine-protein kinase FLT3 (Homo sapiens, UniProt P36888)
T1 sequence (P36888 whole entry): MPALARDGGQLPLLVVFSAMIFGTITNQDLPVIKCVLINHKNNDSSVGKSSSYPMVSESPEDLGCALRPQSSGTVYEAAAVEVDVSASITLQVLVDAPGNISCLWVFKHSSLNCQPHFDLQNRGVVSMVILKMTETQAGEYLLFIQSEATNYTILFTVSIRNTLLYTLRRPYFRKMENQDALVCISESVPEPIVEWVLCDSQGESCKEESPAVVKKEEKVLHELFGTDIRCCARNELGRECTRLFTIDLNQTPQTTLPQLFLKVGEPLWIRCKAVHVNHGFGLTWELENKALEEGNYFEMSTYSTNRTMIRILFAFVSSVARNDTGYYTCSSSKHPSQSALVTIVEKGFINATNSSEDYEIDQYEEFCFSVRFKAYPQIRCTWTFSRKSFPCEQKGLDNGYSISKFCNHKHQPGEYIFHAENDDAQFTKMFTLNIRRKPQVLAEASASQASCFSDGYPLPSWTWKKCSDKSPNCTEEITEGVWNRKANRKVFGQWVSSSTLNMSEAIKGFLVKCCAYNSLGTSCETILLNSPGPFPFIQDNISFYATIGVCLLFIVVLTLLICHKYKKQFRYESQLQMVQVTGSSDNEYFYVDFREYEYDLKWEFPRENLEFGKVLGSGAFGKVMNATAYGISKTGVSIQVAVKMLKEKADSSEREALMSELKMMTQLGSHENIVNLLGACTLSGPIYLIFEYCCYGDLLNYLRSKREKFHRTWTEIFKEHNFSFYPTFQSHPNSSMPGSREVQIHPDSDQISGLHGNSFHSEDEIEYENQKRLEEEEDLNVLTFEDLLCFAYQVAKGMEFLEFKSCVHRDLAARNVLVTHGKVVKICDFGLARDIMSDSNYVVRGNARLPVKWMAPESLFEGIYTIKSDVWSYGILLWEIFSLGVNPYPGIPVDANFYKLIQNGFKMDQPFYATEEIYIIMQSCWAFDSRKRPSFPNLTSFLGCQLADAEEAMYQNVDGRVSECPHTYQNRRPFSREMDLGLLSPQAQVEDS
Assay: Inhibition of FLT3 (unknown origin) using poly (Glu, Tyr) 4:1 as substrate after 30 mins in presence of ATP by HTRF assay
Conditions: not given

| Compound | IC50 |
| --- | --- |
| CCCNC(=O)c1cc(Oc2ccc(NC(=O)c3cc4cccnc4n(-c4ccc(F)cc4)c3=O)cc2)ccn1 | 2.18 nM |

System: HT-29
Assay: cells
Conditions: Homo sapiens, HT-29, 72 h

| Compound | IC50 |
| --- | --- |
| CCNC(=O)c1cc(Oc2ccc(NC(=O)c3cc4cccnc4n(-c4ccccc4F)c3=O)cc2)ccn1 | 260 nM |
| CCCNC(=O)c1cc(Oc2ccc(NC(=O)c3cc4cccnc4n(-c4ccc(Br)cc4)c3=O)cc2)ccn1 | 530 nM |
| CCCNC(=O)c1cc(Oc2ccc(NC(=O)c3cc4cccnc4n(-c4ccc(Br)cc4F)c3=O)cc2)ccn1 | 2160 nM |
| CCNC(=O)c1cc(Oc2ccc(NC(=O)c3cc4cccnc4n(-c4ccccc4)c3=O)cc2)ccn1 | 220 nM |
| CNC(=O)c1cc(Oc2ccc(NC(=O)c3cc4cccnc4n(-c4ccc(Cl)cc4)c3=O)cc2)ccn1 | 390 nM |
| CNC(=O)c1cc(Oc2ccc(NC(=O)c3cc4cccnc4n(-c4ccc(F)cc4)c3=O)cc2)ccn1 | 160 nM |
| CCCNC(=O)c1cc(Oc2ccc(NC(=O)c3cc4cccnc4n(-c4ccc(C(F)(F)F)cc4Cl)c3=O)cc2)ccn1 | 1960 nM |
| CCCNC(=O)c1cc(Oc2ccc(NC(=O)c3cc4cccnc4n(-c4ccc(OC)cc4)c3=O)cc2)ccn1 | 1560 nM |
| CCCNC(=O)c1cc(Oc2ccc(NC(=O)c3cc4cccnc4n(-c4ccc(F)c(Cl)c4)c3=O)cc2)ccn1 | 920 nM |
| CCNC(=O)c1cc(Oc2ccc(NC(=O)c3cc4cccnc4n(-c4ccc(Br)cc4F)c3=O)cc2)ccn1 | 2070 nM |
| CNC(=O)c1cc(Oc2ccc(NC(=O)c3cc4cccnc4n(-c4ccc(OC)cc4)c3=O)cc2)ccn1 | 920 nM |
| CCNC(=O)c1cc(Oc2ccc(NC(=O)c3cc4cccnc4n(-c4ccc(OC)cc4)c3=O)cc2)ccn1 | 3350 nM |
| CCCNC(=O)c1cc(Oc2ccc(NC(=O)c3cc4cccnc4n(-c4ccc(F)cc4)c3=O)cc2)ccn1 | 84 nM |

System: U-87 MG
Assay: Antiproliferative activity against human U87MG cells after 72 hrs by MTT assay
Type: functional, cell-based, U-87MG ATCC
Conditions: not given

| Compound | IC50 |
| --- | --- |
| CCNC(=O)c1cc(Oc2ccc(NC(=O)c3cc4cccnc4n(-c4ccccc4F)c3=O)cc2)ccn1 | 3250 nM |
| CCCNC(=O)c1cc(Oc2ccc(NC(=O)c3cc4cccnc4n(-c4ccc(Br)cc4)c3=O)cc2)ccn1 | 5190 nM |
| CCNC(=O)c1cc(Oc2ccc(NC(=O)c3cc4cccnc4n(-c4ccccc4)c3=O)cc2)ccn1 | 2650 nM |
| CNC(=O)c1cc(Oc2ccc(NC(=O)c3cc4cccnc4n(-c4ccc(F)cc4)c3=O)cc2)ccn1 | 2910 nM |
| CCCNC(=O)c1cc(Oc2ccc(NC(=O)c3cc4cccnc4n(-c4ccc(C(F)(F)F)cc4Cl)c3=O)cc2)ccn1 | 10900 nM |
| CCCNC(=O)c1cc(Oc2ccc(NC(=O)c3cc4cccnc4n(-c4ccc(OC)cc4)c3=O)cc2)ccn1 | 8210 nM |
| CCCNC(=O)c1cc(Oc2ccc(NC(=O)c3cc4cccnc4n(-c4ccc(F)c(Cl)c4)c3=O)cc2)ccn1 | 3590 nM |
| CCNC(=O)c1cc(Oc2ccc(NC(=O)c3cc4cccnc4n(-c4ccc(Br)cc4F)c3=O)cc2)ccn1 | 10300 nM |
| CCNC(=O)c1cc(Oc2ccc(NC(=O)c3cc4cccnc4n(-c4ccc(OC)cc4)c3=O)cc2)ccn1 | 7210 nM |
| CCCNC(=O)c1cc(Oc2ccc(NC(=O)c3cc4cccnc4n(-c4ccc(F)cc4)c3=O)cc2)ccn1 | 960 nM |

Biological target: Mast/stem cell growth factor receptor Kit (Homo sapiens, UniProt P10721)
Assay: Inhibition of c-KIT (unknown origin) using poly (Glu, Tyr) 4:1 as substrate after 30 mins in presence of ATP by HTRF assay
Conditions: not given

| Compound | IC50 |
| --- | --- |
| CCCNC(=O)c1cc(Oc2ccc(NC(=O)c3cc4cccnc4n(-c4ccc(F)cc4)c3=O)cc2)ccn1 | 529 nM |

Biological target: Hepatocyte growth factor receptor (Homo sapiens, UniProt P08581)
Sequence (P08581 whole entry): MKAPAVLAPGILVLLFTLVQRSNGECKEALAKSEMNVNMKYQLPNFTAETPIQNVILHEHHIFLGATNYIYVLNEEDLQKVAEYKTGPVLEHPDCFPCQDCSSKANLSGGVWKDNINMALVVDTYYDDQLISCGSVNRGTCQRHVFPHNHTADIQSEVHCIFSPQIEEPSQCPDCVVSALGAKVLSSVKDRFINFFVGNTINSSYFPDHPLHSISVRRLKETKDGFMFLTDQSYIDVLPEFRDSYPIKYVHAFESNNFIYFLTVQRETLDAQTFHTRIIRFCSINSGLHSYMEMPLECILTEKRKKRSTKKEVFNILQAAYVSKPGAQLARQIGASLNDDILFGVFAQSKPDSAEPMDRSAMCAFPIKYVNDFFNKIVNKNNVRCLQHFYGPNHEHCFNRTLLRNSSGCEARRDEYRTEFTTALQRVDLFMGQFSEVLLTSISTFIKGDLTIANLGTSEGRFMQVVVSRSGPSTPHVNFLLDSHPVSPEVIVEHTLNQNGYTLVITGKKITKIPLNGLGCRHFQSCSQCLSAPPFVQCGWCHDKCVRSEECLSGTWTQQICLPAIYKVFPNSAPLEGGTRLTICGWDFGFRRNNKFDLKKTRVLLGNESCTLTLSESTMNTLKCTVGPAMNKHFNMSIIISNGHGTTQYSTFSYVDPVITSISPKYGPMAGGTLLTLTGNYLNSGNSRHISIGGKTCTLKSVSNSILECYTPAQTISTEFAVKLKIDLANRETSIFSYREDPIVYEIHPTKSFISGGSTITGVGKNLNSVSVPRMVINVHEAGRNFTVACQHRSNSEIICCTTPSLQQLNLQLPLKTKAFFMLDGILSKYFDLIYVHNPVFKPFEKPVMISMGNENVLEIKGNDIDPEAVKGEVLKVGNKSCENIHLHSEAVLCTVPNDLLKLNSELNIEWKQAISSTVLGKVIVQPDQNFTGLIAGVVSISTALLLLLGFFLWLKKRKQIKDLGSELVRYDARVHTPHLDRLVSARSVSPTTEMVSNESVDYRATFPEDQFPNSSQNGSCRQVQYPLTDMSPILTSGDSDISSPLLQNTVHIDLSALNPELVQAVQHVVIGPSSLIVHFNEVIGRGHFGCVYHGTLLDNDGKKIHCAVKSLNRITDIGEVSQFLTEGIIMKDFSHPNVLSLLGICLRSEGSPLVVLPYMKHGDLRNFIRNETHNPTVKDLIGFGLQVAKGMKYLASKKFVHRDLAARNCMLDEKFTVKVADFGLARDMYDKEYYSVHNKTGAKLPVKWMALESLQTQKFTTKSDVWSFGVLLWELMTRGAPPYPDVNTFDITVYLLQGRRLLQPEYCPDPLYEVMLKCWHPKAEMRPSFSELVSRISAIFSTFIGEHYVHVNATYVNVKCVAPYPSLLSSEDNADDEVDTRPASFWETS
Assay: Inhibition of c-MET (unknown origin) using poly (Glu, Tyr) 4:1 as substrate after 30 mins in presence of ATP by HTRF assay
Conditions: not given

| Compound | IC50 |
| --- | --- |
| CCCNC(=O)c1cc(Oc2ccc(NC(=O)c3cc4cccnc4n(-c4ccc(F)cc4)c3=O)cc2)ccn1 | 2.61 nM |

Biological target: Platelet-derived growth factor receptor beta (Homo sapiens, UniProt P09619)
Assay: Inhibition of PDGFRbeta (unknown origin) using poly (Glu, Tyr) 4:1 as substrate after 30 mins in presence of ATP by HTRF assay
Conditions: not given

| Compound | IC50 |
| --- | --- |
| CCCNC(=O)c1cc(Oc2ccc(NC(=O)c3cc4cccnc4n(-c4ccc(F)cc4)c3=O)cc2)ccn1 | 482 nM |

Biological target: Vascular endothelial growth factor receptor 3 (Homo sapiens, UniProt P35916)
Assay: Inhibition of VEGFR3 (unknown origin) using poly (Glu, Tyr) 4:1 as substrate after 30 mins in presence of ATP by HTRF assay
Conditions: not given

| Compound | IC50 |
| --- | --- |
| CCCNC(=O)c1cc(Oc2ccc(NC(=O)c3cc4cccnc4n(-c4ccc(F)cc4)c3=O)cc2)ccn1 | 23.6 nM |

Biological target: Vascular endothelial growth factor receptor 2 (Homo sapiens, UniProt P35968)
Sequence (P35968 whole entry): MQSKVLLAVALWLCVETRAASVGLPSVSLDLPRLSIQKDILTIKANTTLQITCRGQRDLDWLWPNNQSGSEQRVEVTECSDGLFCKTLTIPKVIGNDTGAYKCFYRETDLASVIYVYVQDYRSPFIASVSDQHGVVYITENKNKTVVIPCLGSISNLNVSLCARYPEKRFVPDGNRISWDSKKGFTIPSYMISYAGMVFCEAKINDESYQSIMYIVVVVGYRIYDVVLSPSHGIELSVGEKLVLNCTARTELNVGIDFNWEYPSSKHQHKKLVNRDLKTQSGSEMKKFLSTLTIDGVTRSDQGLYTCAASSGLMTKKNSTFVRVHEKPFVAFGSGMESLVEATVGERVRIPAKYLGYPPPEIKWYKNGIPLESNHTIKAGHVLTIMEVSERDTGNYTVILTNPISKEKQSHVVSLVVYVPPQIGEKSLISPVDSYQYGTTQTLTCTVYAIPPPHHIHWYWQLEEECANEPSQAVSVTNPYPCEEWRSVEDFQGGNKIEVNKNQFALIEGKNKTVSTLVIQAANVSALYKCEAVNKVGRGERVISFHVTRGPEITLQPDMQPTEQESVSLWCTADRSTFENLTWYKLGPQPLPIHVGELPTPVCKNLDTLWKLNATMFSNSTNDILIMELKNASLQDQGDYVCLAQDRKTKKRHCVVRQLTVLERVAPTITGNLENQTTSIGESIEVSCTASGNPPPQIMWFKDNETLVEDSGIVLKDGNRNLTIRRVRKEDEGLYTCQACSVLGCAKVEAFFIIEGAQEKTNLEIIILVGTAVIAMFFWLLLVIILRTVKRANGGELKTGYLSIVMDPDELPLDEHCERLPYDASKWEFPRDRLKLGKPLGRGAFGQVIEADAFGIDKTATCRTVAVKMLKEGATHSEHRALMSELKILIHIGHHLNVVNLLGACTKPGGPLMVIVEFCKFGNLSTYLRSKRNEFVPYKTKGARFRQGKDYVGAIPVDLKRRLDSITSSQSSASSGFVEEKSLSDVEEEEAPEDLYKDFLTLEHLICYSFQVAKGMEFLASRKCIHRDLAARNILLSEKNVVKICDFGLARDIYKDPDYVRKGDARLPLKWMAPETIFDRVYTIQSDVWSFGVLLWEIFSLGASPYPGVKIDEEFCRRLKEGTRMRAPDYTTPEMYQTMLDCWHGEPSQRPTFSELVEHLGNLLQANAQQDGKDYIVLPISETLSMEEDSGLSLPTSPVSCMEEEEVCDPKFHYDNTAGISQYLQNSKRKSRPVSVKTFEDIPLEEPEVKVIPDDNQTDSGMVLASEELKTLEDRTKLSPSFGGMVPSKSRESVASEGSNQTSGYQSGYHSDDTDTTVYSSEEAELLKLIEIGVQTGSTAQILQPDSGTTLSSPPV
Assay: Inhibition of VEGFR2 (unknown origin) using poly (Glu, Tyr) 4:1 as substrate after 30 mins in presence of ATP by HTRF assay
Conditions: not given

| Compound | IC50 |
| --- | --- |
| CCCNC(=O)c1cc(Oc2ccc(NC(=O)c3cc4cccnc4n(-c4ccc(F)cc4)c3=O)cc2)ccn1 | 291 nM |
